Values of other authors, collected in patent US12365644B2, “Co-crystal of ketoprofen, lysine and gabapentin, pharmaceutical compositions and their medical use” (DOMPÉ FARMACEUTICI S.P.A., priority 2020, dated 2025).

Tests used:
[1] = most common side effects

Compound: NCC1(CC(=O)O)CCCCC1 [Gabapentin]
- time to utmost level in plasma (after oral administration): 3 to 4 h
- attachment to plasma proteins (in vivo): does not attach to plasma proteins
- excretion half-life (renal excretion): roughly 6 hours
- side effect: ataxia [1]: 13%
- side effect: dizziness [1]: 18%
- side effect: fatigue [1]: 11%
- side effect: somnolence [1]: 20%
